The nature of assay [1]: Cytotoxicity against human HL60 cells after 48 hrs by WST8 assay. Format: functional, cell-based. Conditions: HL-60, 48 h. In general terms: Tetrazolium assays rely on reduction of a dye to a coloured formazan, in cell work by metabolically active cells.
The subject of assay [2] is HeLa. Kind of assay: Cytotoxicity against human HeLa cells after 48 hrs by WST8 assay. It is filed as functional, cell-based.
Assay [3] can be described thus: Cytotoxicity against human HL60 cells assessed as inhibition of cell growth at 100 uM after 48 hrs by WST8 assay. Conditions: HL-60, 48 h, read-out: GI. Format: functional.
Assay [4] relates to HeLa. Kind of assay: Cytotoxicity against human HeLa cells assessed as inhibition of cell growth at 100 uM after 48 hrs by WST8 assay. It is filed as functional. Conditions: read-out: GI.
In assay [5] the test system is HL-60. Kind of assay: Induction of apoptosis in human HL60 cells assessed as early apoptosis level at 8 uM after 24 hrs by Annexin V-PE and 7-AAD staining based flow cytometry (reference value: 3.3%). It is filed as functional. In general terms: A flow cytometer gives signals particle by particle.
Assay [6] relates to HL-60. In words: Induction of apoptosis in human HL60 cells assessed as late apoptosis level at 8 uM after 24 hrs by Annexin V-PE and 7-AAD staining based flow cytometry (reference value: 3.2%). Format: functional.
Assay [7] deals with HL-60. In words: Induction of apoptosis in human HL60 cells assessed as reduction in pro-caspase-9 level at 8 uM after 24 hrs by Western blotting method. It is filed as functional, cell-based. For orientation: Immunoblotting shows a protein as a band on a membrane.
In assay [8] the test system is HL-60. Kind of assay: Induction of apoptosis in human HL60 cells assessed as increase in caspase-9 level at 8 uM after 12 hrs by Western blotting method. Format: functional, cell-based.
The test system of assay [9] is HL-60. In words: Induction of apoptosis in human HL60 cells assessed as increase in caspase-3 level at 8 uM after 24 hrs by Western blotting method. Format: functional, cell-based.
For assay [10], the system named is HL-60. In words: Induction of apoptosis in human HL60 cells assessed as increase in DNA fragmentation at 25 uM after 4 hrs by ethidium bromide staining and gel electrophoresis based DNA ladder analysis. It is filed as functional, cell-based.
Assay [11] relates to HL-60. In words: Induction of apoptosis in human HL60 cells assessed as late apoptosis level at 0.2 uM after 24 hrs by Annexin V-PE and 7-AAD staining based flow cytometry (reference value: 3.3%). It is filed as functional.

The structures appear in SMILES notation. The source made the active and inactive calls. The rule behind the calls is not given here.

One may read the IC50 as the concentration needed to halve the response being measured.

On to `COC[C@H](C)[C@@H](C)C(c1ccc(O)c(OC)c1)c1ccc(O)c(OC)c1`, for which the IC50 worked out at 68 µM in assay [1] and 77 µM in the assay with HeLa [2].

With `COc1cc(C(c2ccc(O)c(OC)c2)[C@@H](CF)C(C)C)ccc1O`, the values for the IC50 (in [1]; with HeLa [2]) were 39 µM and 41 µM, respectively.

For `COc1ccc(C(c2ccc(OC)c(OC)c2)[C@@H](C)[C@@H](C)CO)cc1OC`, the IC50 (in [1]; with HeLa [2]) was more than 100 µM each time. Besides, the figures for the inhibition of growth at 100 µM (in assay [3]; in the assay on HeLa [4]) were 42% and 55%, respectively.

For `COc1cc(C(c2ccc(O)c(OC)c2)[C@H](C)C(C)C)ccc1O`, the IC50 in [1] was found to be 17 µM; with HeLa [2] it was 16 µM.

Regarding `COc1cc(C(c2ccc(O)c(OC)c2)[C@H](CC(C)C)C(C)C)ccc1O`, the IC50 in assay [1] came to 9.6 µM; in the assay on HeLa [2], 8.2 µM.

Consider `COC[C@@H](C(C)C)C(c1ccc(O)c(OC)c1)c1ccc(O)c(OC)c1`, for which the figures for the IC50 (in [1]; in the assay on HeLa [2]) were 54 µM and 69 µM, respectively.

Consider `COc1cc(C(c2ccc(O)c(OC)c2)[C@@H](C)[C@@H](C)CF)ccc1O`, for which the values for the IC50 (in assay [1]; in the assay with HeLa [2]) were 38 µM and 42 µM, respectively.

For `COc1cc(C(c2ccc(O)c(OC)c2)[C@H](C)[C@H](C)CF)ccc1O`, the values for the IC50 (in assay [1]; in the assay on HeLa [2]) were 56 µM and 75 µM, respectively.

For the molecule `COC[C@@H](C)[C@H](C)C(c1ccc(O)c(OC)c1)c1ccc(O)c(OC)c1`, the IC50 in assay [1] was found to be 73 µM; in the assay on HeLa [2], 58 µM.

Turning to `COc1cc(C(c2ccc(O)c(OC)c2)[C@@H](C)[C@H](C)CO)ccc1O`, the IC50 (in assay [1]; in the assay on HeLa [2]) was more than 100 µM each time. Further, the inhibition of growth at 100 µM was found to be 0% in [3] and 7% with HeLa [4].

Turning to `COc1cc(C(c2ccc(O)c(OC)c2)[C@H](C)[C@@H](C)CO)ccc1O`, the IC50 (in [1]; in the assay with HeLa [2]) was more than 100 µM each time. For the same molecule, the inhibition of growth at 100 µM (in assay [3]; in the assay with HeLa [4]) was 7% in each case.

Turning to `COc1cc(C(c2ccc(O)c(OC)c2)[C@@H](C)[C@H](C)CF)ccc1O`, the 50% inhibitory concentration (IC50) in assay [1] turned out to be 32 µM; with HeLa [2], 37 µM.

`COC[C@H](C(C)C)C(c1ccc(O)c(OC)c1)c1ccc(O)c(OC)c1`: the IC50 came out at 72 µM in assay [1] and 76 µM with HeLa [2].

For `CCCCC[C@H](C(C)C)C(c1ccc(O)c(OC)c1)c1ccc(O)c(OC)c1`, the IC50 in assay [1] is 9.6 µM; with HeLa [2] it was 9.2 µM.

As to `CCCCCCCC[C@H](C(C)C)C(c1ccc(O)c(OC)c1)c1ccc(O)c(OC)c1`, the IC50 in assay [1] is 3.7 µM; with HeLa [2], 3.1 µM. Also, the results for the Activity with HL-60 [5] and in the assay with HL-60 [6] were 13.5% and 33.1%, respectively. In addition, the result with HL-60 [7], with HL-60 [8], in the assay with HL-60 [9] and with HL-60 [10] was Active.

In the case of `COC[C@@H](C)[C@@H](C)C(c1ccc(O)c(OC)c1)c1ccc(O)c(OC)c1`, the IC50 was 85 µM in [1] and more than 100 µM in the assay with HeLa [2]. In the assay on HeLa [4], the inhibition of growth at 100 µM came out at 34%.

In the case of `COc1cc(C(c2ccc(O)c(OC)c2)[C@@H](C)C(C)C)ccc1O`, the values for the IC50 (in [1]; in the assay with HeLa [2]) were 20 µM and 19 µM, respectively.

For the molecule `COc1ccc(C(c2ccc(OC)c(OC)c2)[C@@H](C)[C@H](C)CO)cc1OC`, the IC50 (in [1]; with HeLa [2]) was more than 100 µM in each case. For the same molecule, the inhibition of growth at 100 µM (in [3]; in the assay on HeLa [4]) was 0% in each case.

For `COc1cc(C(c2ccc(O)c(OC)c2)[C@H](C)[C@@H](C)CF)ccc1O`, the IC50 in [1] stood at 45 µM; in the assay with HeLa [2], 34 µM.

Take `COc1cc(C(c2ccc(O)c(OC)c2)[C@H](CF)C(C)C)ccc1O`: the IC50 (in assay [1]; in the assay on HeLa [2]) was 19 µM each time.

For `COc1ccc(C(c2ccc(OC)c(OC)c2)[C@H](C)[C@H](C)CO)cc1OC`, the IC50 (in assay [1]; in the assay with HeLa [2]) was more than 100 µM each time. The inhibition of growth at 100 µM in [3] came out at 28%; in the assay with HeLa [4], 13%.

With `CC[C@H](C(C)C)C(c1ccc(O)c(OC)c1)c1ccc(O)c(OC)c1`, the IC50 was found to be 16 µM in assay [1] and 9.7 µM in the assay with HeLa [2].

As to `COc1cc(C(c2ccc(O)c(OC)c2)[C@H](CO)C(C)C)ccc1O`, the concentration for half-maximal inhibition (IC50) (in assay [1]; in the assay with HeLa [2]) was more than 100 µM in each case. In addition, the inhibition of growth at 100 µM came out at 10% in assay [3] and 3% with HeLa [4].

With `COc1cc(C(c2ccc(O)c(OC)c2)[C@@H](C)[C@@H](C)CO)ccc1O`, the concentration for half-maximal inhibition (IC50) (in assay [1]; in the assay on HeLa [2]) was more than 100 µM throughout. The inhibition of growth at 100 µM came to 3% in assay [3] and 8% in the assay on HeLa [4].

As to `COC[C@H](C)[C@H](C)C(c1ccc(O)c(OC)c1)c1ccc(O)c(OC)c1`, the IC50 in assay [1] was found to be 82 µM; with HeLa [2], 72 µM.

Regarding `COc1ccc(C(c2ccc(OC)c(OC)c2)[C@H](C)[C@@H](C)CO)cc1OC`, the IC50 in [1] stood at 47 µM; in the assay on HeLa [2], 67 µM.

On to `COc1cc(C(c2ccc(O)c(OC)c2)[C@@H](CO)C(C)C)ccc1O`, for which the 50% inhibitory concentration (IC50) (in assay [1]; in the assay with HeLa [2]) was more than 100 µM in each case. For the same molecule, the inhibition of growth at 100 µM stood at 18% in assay [3] and 2% in the assay with HeLa [4].

`CN[C@@H]1C[C@H]2O[C@@](C)([C@@H]1OC)n1c3ccccc3c3c4c(c5c6ccccc6n2c5c31)C(=O)NC4` [STAUROSPORINE]: in the assay with HL-60 [11], the Activity is recorded as 17.4%.

`COc1cc(C(c2ccc(O)c(OC)c2)[C@H](C)[C@H](C)CO)ccc1O`: the IC50 (in assay [1]; with HeLa [2]) was more than 100 µM each time. Besides, the inhibition of growth at 100 µM in [3] is 23%; in the assay on HeLa [4], 0%.

The values are drawn from ChEMBL document CHEMBL3352111, “Cytotoxic activity of butane type of 1,7-seco-2,7'-cyclolignanes and apoptosis induction by Caspase 9 and 3” (Bioorg Med Chem Lett, 2014).
